Data taken from the METLIN SMRT retention time set (Domingo-Almenara et al. 2019).

test: gradient 5% acetonitrile 3 min, to 50% in 2 min, to 85% in 15 min, held 3 min, 100 µL/min; details: column: Zorbax Extend-C18 2.1 x 50 mm; eluents: water / acetonitrile, 0.1% formic acid
Procedure, shortened: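 Values are retention times taken from adduct peaks that software picked and an analyst inspected. The pure standards were run as mixtures of ~100 molecules on HPLC linked to a quadrupole time-of-flight mass spectrometer, in positive and negative ionization mode. A Zorbax Extend-C18 column (2.1 × 50 mm, 1.8 μm) was used at 100 μL/min with water and acetonitrile, each including 0.1% formic acid.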

RP-LC retention time	SMILES
896 s	Cc1ccc2[nH]cc(CCNC(=O)CCC(=O)N3CCSc4c3c(C)nn4-c3ccccc3)c2c1
887 s	COc1ccc(-c2cn3ccn(-c4ccc(Cl)cc4)c(=O)c3n2)cc1OC
655 s	COc1ccc(S(=O)(=O)N2CCC(CN3CCC(C)CC3)CC2)cc1
757 s	CCOC(=O)c1ccc(NC(=O)c2ccc(-n3nncc3C)cc2)cc1
896 s	O=C(NC1CC1)c1ccc2c(c1)CCCN2S(=O)(=O)c1ccc(Cl)cc1
961 s	COc1ccc(-c2ncc3c(n2)CCN(C(=O)Nc2ccccc2Br)C3)cc1
1030 s	CC1CCN(S(=O)(=O)c2ccc(-c3nnc(C4CCC4)o3)o2)CC1
670 s	Cc1oc(-c2[nH]ncc2C(=O)N(C)C)cc1S(=O)(=O)Nc1ccc(F)cc1
684 s	CN(C)C(=O)c1ccc2c(c1)nnn2CCNC(=O)Nc1cccc(Cl)c1
888 s	CC(C)Cn1c(=O)c(C(=O)NCCCc2ccccc2)nc2cccnc21
982 s	COc1ccccc1C(O)Cn1ccn2nc(-c3ccc(C)c(C)c3)cc2c1=O (centres undefined)
982 s	CCOc1ccc(NC(=O)N2c3ccccc3CC2c2nc(C3CC3)no2)cc1 (centres undefined)
1020 s	COc1cc(-c2noc(Cn3nc(-c4ccc(Br)cc4)ccc3=O)n2)cc(OC)c1OC
739 s	Clc1ccc(-c2csc(N3CCN(c4nc(-c5ccccc5)cs4)CC3)n2)cc1
718 s	Cc1ccc(-c2cc(C(=O)N3CCN(Cc4ccc5c(c4)OCO5)CC3)c(C)[nH]2)cc1C
559 s	CCC(=O)N1CCc2c(sc3ncnc(NCc4ccccn4)c23)C1
764 s	Cc1ccc(CNC(=O)Cn2c(C)nc3onc(C)c3c2=O)cc1
581 s	COc1ccc(-c2cn3c(CC(=O)Nc4cccnc4)csc3n2)cc1OC
728 s	CCN1CCn2cc(S(=O)(=O)Nc3cccc(Cl)c3)cc2C1=O
764 s	COC(=O)c1ncn2c1C(=O)N(Cc1cccc(Br)c1)C(C)(C(=O)NC1CCCC1)C2 (centres undefined)
816 s	c1ccc2c(c1)CCN(Cc1nc(-c3ccc(N4CCCCCC4)nc3)no1)C2
774 s	CC(C)(C)CC(=O)N1CCCC(c2nc(CNC(=O)C3CCC3)cs2)C1 (centres undefined)
600 s	CC1(C)C(=O)N(CC(=O)N2CCN(c3ccccn3)CC2)c2ccccc21

RP-LC retention time	SMILES
1140 s	CCOc1cc(C(=O)Nc2nc(-c3ccc4c(c3)N(C)C(=O)CO4)cs2)cc(OCC)c1OCC
633 s	O=C(c1ccc(F)cc1F)N1CCC(n2cnnc2C2CC2)CC1
582 s	Cc1cnc(C2CN(Cc3cccc(C#N)c3)C2)n1Cc1ccccc1
801 s	CCOc1cc(-c2ccc(F)cc2)nc2ccc(NS(=O)(=O)c3ccc(C#N)cc3)cc12
925 s	COCCn1cc(C(=O)NC2CCCCC2)c2nn(-c3ccccc3)c(=O)c-2c1
908 s	O=C(Cn1c(-c2cccs2)cc2ccccc21)N1CCN(C(=O)c2ccco2)CC1
727 s	CSc1ccccc1NC(=O)C(=O)NCC1(CO)CC1
855 s	CCN(CC)S(=O)(=O)c1ccc2c(c1)CC(C(=O)NC1CCCC1)N2C(C)=O (centres undefined)
562 s	CCc1ccccc1NC(=O)C(=O)NCC1CCN(CCOC)CC1
905 s	COc1ccc(-c2csc3ncn(-n4c(C)ccc4C)c(=O)c23)cc1OC
807 s	CN1C(=O)c2cc(C(=O)NCc3cccc(Br)c3)nn2CC1(C)C(=O)NC1CCCC1 (centres undefined)
876 s	CC(=O)c1ccc(S(=O)(=O)N2CCCC(C)(C(=O)NCc3ccc(F)cc3)C2)cc1 (centres undefined)
672 s	Nc1nc(SCc2ccccc2Cl)c2ncn(C3OC(CO)C(O)C3O)c2n1 (centres undefined)
630 s	CCCN1CCN(C(=O)c2ccc(S(=O)(=O)c3ccccc3)s2)CC1
627 s	CCCN1CCN(c2cc(C(=O)O)c3cc(NS(=O)(=O)c4cc(F)ccc4C)ccc3n2)CC1
808 s	CCc1ccc(Nc2nc(C(=O)NCc3ccco3)nc3ccccc23)cc1
766 s	CC(=O)Nc1ccc(-c2noc(C3CCCN(C(=O)c4ccsc4)C3)n2)cc1 (centres undefined)
565 s	Cn1ccnc1C(=O)N1CCc2nn(CC3CC3)c(=O)n2CC1
565 s	CCN1CCN(CCNC(=O)C2CCCN(C(=O)c3[nH]c(C)c(C(=O)OC)c3C)C2)CC1 (centres undefined)
561 s	CCCn1cc(-c2ccncc2)cc1C(=O)NC1CCN(Cc2ccccc2)CC1
604 s	CC(C)NC(=O)c1ccc2nc(-c3ccccc3)cn2c1
961 s	CCCNC(=O)c1cnn(-c2cc(-c3nc(C(C)(C)C)no3)ccn2)c1C
1130 s	COc1ccc(-c2nc(-c3cccc(-c4ccnn4C)c3)no2)cc1F

RP-LC retention time	SMILES
753 s	CC1=C(c2ccccc2)S(=O)(=O)N=C1N1CCC(NC(=O)C2CCC2)CC1
857 s	Cc1ccc(-c2nc(-c3ccc4ncn(C(C)C)c4c3)no2)cc1
712 s	COc1ccc2c(c1)c(CN1CCC(C(=O)NC3CCCCCC3)CC1)cn2C
903 s	O=C(NCc1ccc(-c2noc(-c3ccc(F)c(F)c3)n2)s1)C1CC1
743 s	Cc1ccn2cc(-c3ccc(NS(=O)(=O)c4ccc(Cl)c(Cl)c4)cc3)nc2n1
611 s	Cn1c(CCNC(=O)c2cccc(F)c2)nc2cccnc21
597 s	CCC1CCCCN1CCNC(=O)Cn1c(=O)n(-c2ccccc2)c2ncccc21 (centres undefined)
688 s	CCOc1ccc(Cl)cc1S(=O)(=O)N1CCC(C(=O)NCCCO)CC1
748 s	COc1ccc(-c2c(C)noc2NC(C)=O)cc1S(=O)(=O)Nc1cc(F)ccc1F
1100 s	COc1ccc(-c2cc(-c3ccccc3)c(-c3ccccc3)nn2)cc1
590 s	O=C(Cn1cnc2ccccc2c1=O)N1CCOCC1
1240 s	Cc1cc(S(=O)(=O)N2CCCC2c2nc(-c3ccc(Cl)cc3)no2)ccc1F (centres undefined)
1240 s	CCCCC(CC)C(=O)Nc1nc(-c2ccc(Cl)cc2)cs1 (centres undefined)
593 s	COc1cc(Cl)ccc1C(=O)N1CCc2nc[nH]c2C1
628 s	O=C(Cn1ncc2c(N3CCN(c4ccccn4)CC3)ncnc21)NCc1ccc(F)c(Cl)c1
861 s	CCn1cc(-c2ccc(F)cc2)cc1C(=O)O
1070 s	COc1ccc(C2CC(=O)c3c([nH]c(C(=O)OC4CCCCC4)c3C)C2)cc1OC (centres undefined)
894 s	CCc1ccccc1N(C(=O)C1CCCCC1)C1C=CS(=O)(=O)C1 (centres undefined)
577 s	CCN1CCN(S(=O)(=O)c2cc(-c3[nH]ncc3C(=O)N3CCCC3)oc2C)CC1
777 s	Cn1ncc(NC(=O)c2cccc(Cl)c2)c(N2CCOCC2)c1=O
584 s	CCSc1nnc(NC(=O)CCc2c(C)n[nH]c2C)s1
777 s	Cc1cc(C)c(NC(=O)CN2C(=O)NC3(CCCCC3)C2=O)c(C)c1
732 s	CCn1cc(CC(=O)NC(C)c2ccc(F)cc2)c2cccnc21 (centres undefined)

RP-LC retention time	SMILES
700 s	COC(=O)C(Cc1ccccc1)NC(=O)Nc1cccn2cnnc12 (centres undefined)
1040 s	O=C(c1ccccc1)C1N=NCC1c1ccc(Cl)cc1 (centres undefined)
829 s	CCNc1cc(C)nc(N2CCN(S(=O)(=O)c3ccc(-c4ccccc4)cc3)CC2)n1
1050 s	Cn1ccc2cc(CCC(=O)N3CCN(c4ccc(Cl)cc4)CC3)ccc21
895 s	O=C(CN1C(=O)NC(c2ccc(Cl)cc2)C2=C1COC2=O)Nc1ccc(C(F)(F)F)cc1 (centres undefined)
554 s	Cc1cnc(C(=O)N2C[C@@H](Oc3cccnc3)C[C@H]2C(=O)NC2CC2)cn1
708 s	O=c1ccc(-n2cccn2)nn1CCNS(=O)(=O)c1ccc(Cl)s1
655 s	CN(C(=O)Cn1nc2n(c1=O)CCCCC2)c1ccccc1
663 s	CC(=O)Nc1onc(C)c1-c1ccc(C)c(S(=O)(=O)NCCc2ccc(S(N)(=O)=O)cc2)c1
616 s	c1cc(-c2noc(C3CC3)n2)ccc1OC1CNC1
792 s	COc1ccccc1CNC(=O)CCc1csc(NC(=O)c2ccc(F)cc2)n1
644 s	Cc1cc(C)cc(NC(=O)N2CCN(c3cc(-c4cccnc4)[nH]n3)CC2)c1
580 s	COc1ccc(C(=O)N2CCN(c3nc(CN4CCOCC4)cs3)CC2)cn1
860 s	Cn1nc(-c2nc(C3CC3)no2)c2c1CCN(C(=O)c1cc(F)ccc1F)C2
866 s	Cc1ccc(-n2nc(OCC(=O)Nc3cc(F)ccc3F)ccc2=O)cc1C
813 s	Cc1cccc(NC(=O)N2c3ccccc3NC3=C(C(=O)CCC3)C2c2ccco2)c1C (centres undefined)
790 s	COc1ccc(NC(=O)N2C[C@@H](F)C[C@H]2C(=O)N2CCc3ccccc3C2)c(OC)c1
642 s	CNCc1ccc(-c2[nH]c3cc(F)cc4c3c2CCNC4=O)cc1
1040 s	COc1ccc(S(=O)(=O)N2CCCC(C(=O)NC3CCCCCC3)C2)cc1C (centres undefined)
694 s	COc1ccccc1CNS(=O)(=O)c1cc(-c2[nH]ncc2C(=O)N2CCCC2)oc1C
